According to patent publication US20190365675A1, “COMPOSITIONS FOR THE PREVENTION AND/OR TREATMENT OF ALCOHOL USE DISORDERS” (SERVICIO ANDALUZ DE SALUD, priority 2016, published 2019):

Columns and labels:
Assay type in all cases: in vivo, Wistar rats
iNOS = iNOS mRNA in frontal cortex after ethanol intoxication; conditions: OEA pre-treatment
Procedure: (§1) The animals were treated with intragastric (i.g.) ethanol 3 times a day using an i.g. cannula (16G needle, Fisher Scientific, Waltham, Mass., USA), following a protocol based on a slightly modified standard 4-day alcohol intoxication pattern (Bernier et al., 2002a, b) (FIG. 1A). The ethanol doses were administered every 8 h for a total time of 4 days. The rats treated with ethanol received an initial loading dose of 5 g/kg of ethanol in a 30% solution (w/v) and then a maximum maintenance dose of 3 g/kg, which were determined based on blood ethanol levels (BEL). This repeated standard alcohol intoxication paradigm kept BEL intoxication relatively constant in a range of sedation/ataxia (190 to 430 mg/dl, Table 3), according to the 6-point alcohol intoxication behavior scale (Majchrowicz, 1975). The mean dose of ethanol/rat/day (days 1-4) was 7.06 g/kg, similar to other studies (Obernier et al., 2002a, b). OEA (5 mg/kg, i.p., except initial dose of 10 mg/kg i.p.; synthesized as described in Giuffrida et al., 2000) was dissolved in the vehicle (5% Tween-80 in saline solution) and injected 10 minutes before each of the administrations of ethanol by an intragastric gavage. […] The quantitative changes in mRNA levels were estimated by means of RT-PCR, carried out in the presence of the SYBR green primer using a 20-L reaction in a Rotor-Gene (Corbett Research®, Mortlake, NSW, Australia). […]

rats = assay: Elevated plus maze test during ethanol withdrawal
Procedure: In this third experiment (n=25), the treatment with ethanol intoxication and pre-treatment with OEA applied in experiment 2 was repeated, and the animals were subjected to elevated plus maze test 24 h and 12 days after the last forced administration of ethanol and to the forced swim test 48 h after the ethanol intoxication protocol. The rats were subjected to the forced swim test two days after the last ethanol force-feeding (see FIG. 1C for the experimental design), and specific behaviors were recorded with a digital video camera for 5 minutes. These same rats were also subjected to the elevated plus maze test equipped with infrared light photography (Panlab, Barcelona, Spain) 1 and 12 days after the last ethanol force-feeding, where the animals were allowed to freely explore the maze for 5 minutes. The tests were performed 3 h after the start of the dark phase.

MyD88 = MyD88 protein expression in frontal cortex after ethanol intoxication; conditions: 2-4 h after last ethanol, OEA pre-treatment
Procedure: as §1, with “autoradiograph was quantified” for “quantitative changes in mRNA levels were estimated”, “densitometry (NIH ImageJ® software, National Biosciences, Lincoln, Nebr. USA) and expressed as optical density (OD).” for “means of RT-PCR, carried out in the presence of the SYBR green primer using a 20-L reaction in a Rotor-Gene (Corbett Research®, Mortlake, NSW, Australia).”

With `CCCCCCCC/C=C\CCCCCCCC(=O)NCCO` [OEA, oleoylethanolamide] the “Ethanol-induced increase in expression of iNOS mRNA” value (iNOS) was “entirely prevented”, the “Elevated plus maze: percentage of entries and time in the open arms” value (rats; 24 h after ethanol intoxication, Dunn's post-hoc test did not find significant effects) was “clear trend that shows a clear anxiolytic effect” and the “Elevated plus maze: percentage of entries and time in the open arms” value (rats; 12 days after ethanol intoxication) was “not significant”. The “Ethanol-induced increase in expression of MyD88 protein” value (MyD88) was “inhibited”.
